Data published in patent US8329644B2, “Lantibiotic-based compounds having antimicrobial activity” (Novacta Biosystems Limited, priority 2007, dated 2012).
In brackets after ≈: the same amount, converted by molar mass. Read-outs that look alike come from different tables or passages of the source.

How the values were obtained:
Clostridium difficile = assay: MIC, Clostridium difficile in Wilkins-Chalgren Anaerobe Agar; format: cell-based; design: key: MIC in μg/ml (two-fold dilutions, 0.06–64)
Protocol: (§1) Susceptibility testing for all aerobic organisms with the exception of Streptococcus pneumoniae was performed by two-fold serial antibiotic dilutions in Mueller-Hinton Broth supplemented with 50 μg/ml Ca^2+ unless otherwise noted. Susceptibility testing for S. pneumoniae was performed by two-fold serial antibiotic dilutions in Brain-Heart-Infusion Broth supplemented with 50 μg/ml Ca^2+ unless otherwise noted. Actively growing broth cultures were diluted to contain […] by adjusting to an OD600 of 0.2-0.3. They were then diluted a further 1:100 in fresh sterile broth. The assays were performed in duplicate in sterile 96-well microtitre plates in a total volume of 200 μl (160 μl broth, 20 μl antimicrobial agent, 20 μl inoculum) in a concentration range from 64 μg/ml to 0.06 μg/ml. […] Clinical isolates of Clostridium difficile were tested in Wilkins-Chalgren Anaerobe Agar under anaerobic conditions. In all cases, vancomycin was used as a reference antibiotic

[1] = Stability in simulated gastric fluid (SGF); format: in vitro ADME; settings: 37° C., analytical HPLC
Protocol: (§2) Nisin, mersacidin, compound I and compound III were tested for their susceptibility towards enzymatic digestion in the stomach. Nisin, mersacidin and compound III were tested for their susceptibility towards enzymatic digestion in the intestine. The SGF and SIF were based on the standard USP solutions for simulated gastric and simulated intestinal fluids and their activity confirmed against Bovine Serum Albumin (Hilger et al, Clin. Exp. Immunol. 2001, 123, 387-94). The compounds were incubated in SGF or SIF at 37° C. and their concentrations quantified by analytical HPLC (UV detection at 210 nm). The potential degradation of each compound was also monitored qualitatively by measuring in vitro antibacterial activity against Micrococcus luteus.

Water solubility = format: physicochemical; settings: aqueous
From the text: Typically, compounds of the invention were isolated using phosphate buffers.

[2] = rat, 100 mg/kg oral
Protocol: Male Sprague-Dawley rats were dosed with compound I at 100 mg/kg via the oral route. Faeces and urine were collected over a 48 h period in two batches (at 24 h and 48 h post dose). Blood samples were taken at various time points for the first 24 h.

E. coli = assay: MIC against intestinal flora organisms, E. coli; format: cell-based; settings: for MIC: Escherichia coli, read-out: Minimal Inhibitory Concentration (MIC)
Protocol: as §1

[3] = system: Bifidobacterium adolescentis; assay: MIC against intestinal flora organisms, Bifidobacterium adolescentis; format: cell-based; settings: NCTC11814; Bifidobacterium adolescentis NCTC 11814; Table 5; read-out: Minimal Inhibitory Concentration (MIC)
Bacteroides fragilis = assay: MIC against intestinal flora organisms, Bacteroides fragilis; format: cell-based; settings: NCTC9343; Bacteroides fragilis NCTC 9343; Table 5; read-out: Minimal Inhibitory Concentration (MIC)
S. pneumoniae = assay: MIC susceptibility testing, S. pneumoniae (Brain-Heart-Infusion Broth); format: cell-based, Streptococcus pneumoniae; settings: Streptococcus pneumoniae; S. pneumoniae R6; Table 2; read-out: MIC
Protocol: as §1

[4] = system: C. difficile strain VPI 10463; assay: Hamster model of C. difficile associated cecitis, first experiment (FIG. 1); format: in vivo; settings: C. difficile VPI 10463, three times daily at 50 mg/kg/day, 5-day dosing period, groups of 6
Protocol: In the first experiment (FIG. 1) groups of 6 animals were dosed with approximately 10^7 cells of C. difficile strain VPI 10463 and 24 hours later with a subcutaneous dose of 10 mg/kg clindamycin phosphate.
The procedure as described induced a C. difficile infection in the test animals, from which all animals treated only with vehicle died within 3 days.

[5] = system: Bacteroides thetaiotaomicron; assay: MIC against intestinal flora organisms, Bacteroides thetaiotaomicron; format: cell-based; settings: NCTC10582; Bacteroides thetaiotaomicron NCTC 10582; Table 5; read-out: Minimal Inhibitory Concentration (MIC)
Bifidobacterium longum = assay: MIC against intestinal flora organisms, Bifidobacterium longum; format: cell-based; settings: NCTC11818; Bifidobacterium longum NCTC 11818; Table 5; read-out: Minimal Inhibitory Concentration (MIC)
M. luteus = assay: MIC susceptibility testing, M. luteus; format: cell-based; settings: Micrococcus luteus; M. luteus 4698; Table 2; read-out: MIC
Protocol: as §1

S. epidermidis = assay: MIC susceptibility testing, S. epidermidis; format: cell-based, Staphylococcus epidermidis; settings: Staphylococcus epidermidis
Protocol: as §1

E. faecium = assay: MIC susceptibility testing, E. faecium; format: cell-based; settings: Enterococcus faecium
Protocol: as §1

S. aureus = assay: MIC susceptibility testing, S. aureus; format: cell-based, Staphyloccus aureus; settings: Staphylococcus aureus, Table 2, read-out: MIC
Protocol: as §1

E. faecalis = assay: MIC susceptibility testing, E. faecalis; format: cell-based; settings: Enterococcus faecalis; E. faecalis 29212; Table 2; read-out: MIC
Protocol: as §1

Micrococcus luteus = assay: In vitro antibacterial activity against Micrococcus luteus during SIF incubation; format: cell-based; settings: after incubation in SIF
Protocol: as §2

Deoxy-Actagardine B N-[2-hydroxy-2-phenylethylamine]monocarboxamide [Compound XX]
MIC (Clostridium difficile; C. difficile 027C, Table 4A): 2
MIC (Clostridium difficile; C. difficile 630, Table 4A): 2
MIC (Clostridium difficile; C. difficile 19126, Table 4A): 2
MIC (Clostridium difficile; C. difficile 37779, Table 4A): 2

Deoxy-actagardine B (2-hydroxypiperazine) monocarboxamide [Compound XXIII]
MIC (Clostridium difficile; C. difficile 027C, Table 4A): 4
MIC (Clostridium difficile; C. difficile 630, Table 4A): 2
MIC (Clostridium difficile; C. difficile 19126, Table 4A): 4
MIC (Clostridium difficile; C. difficile 37779, Table 4A): 4

CC[C@H](C)[C@@H]1NC(=O)[C@@H]2NC(=O)[C@H](CC(C)C)NC(=O)[C@H](NC(=O)[C@@H]3CSC[C@@H](N)C(=O)N[C@@H](CO)C(=O)NCC(=O)N[C@@H](Cc4c[nH]c5ccccc45)C(=O)N[C@@H](C(C)C)C(=O)N3)[C@H](C)SC[C@H](NC(=O)[C@H](CCC(=O)O)NC1=O)C(=O)NCC(=O)N[C@H]1C(=O)N[C@@H](CC(C)C)C(=O)N[C@@H](C(C)C)C(=O)N[C@@H](CS[C@H]2C)C(=O)N[C@@H](C)C(=O)N[C@H](C(=O)NCCO)CS[C@H]1C [Compound I, Deoxy-Actagardine B N-[2-ethanolamine]monocarboxamide]
degradation in Simulated Gastric Fluid [1]: did not show appreciable degradation
solubility (Water solubility): 15 mg/mL (≈ 7820 µM)
material recovered from plasma or urine [2]: No material was recovered

Deoxyactagardine B (N-(2-hydroxyethyl)ethylenediamine) monocarboxamide [Compound XXII]
MIC (Clostridium difficile; C. difficile 027C, Table 4A): 2
MIC (Clostridium difficile; C. difficile 630, Table 4A): 2
MIC (Clostridium difficile; C. difficile 19126, Table 4A): 2
MIC (Clostridium difficile; C. difficile 37779, Table 4A): 2

CN[C@H](CC(C)C)C(=O)N[C@H]1C(=O)N[C@@H](CC(N)=O)C(=O)N[C@H]2C(=O)N[C@H]3C(=O)N[C@H](C(=O)N[C@H](C(=O)O)c4cc(O)cc(O)c4-c4cc3ccc4O)[C@H](O)c3ccc(c(Cl)c3)Oc3cc2cc(c3O[C@@H]2O[C@H](CO)[C@@H](O)[C@H](O)[C@H]2O[C@H]2C[C@](C)(N)[C@H](O)[C@H](C)O2)Oc2ccc(cc2Cl)[C@H]1O [Vancomycin, vancomycin, reference compound]
Minimal Inhibitory Concentration (MIC) (E. coli; E. coli DC2 (membrane more susceptible), Table 5, first line): >64 µg/mL
MIC (E. coli; ATCC25922, E. coli ATCC 25922, Table 5): > 64 µg/mL
MIC (E. coli; E. coli DC2 (membrane more susceptible), Table 5, second line): > 64 µg/mL
MIC [3]: 1 µg/mL (≈ 0.69 µM)
MIC (Bacteroides fragilis): 32 µg/mL (≈ 22.1 µM)
MIC (S. pneumoniae): > 64 µg/mL
survival of infected animals [4]: survived for the duration of the entire 5-day dosing period
MIC [5]: 64 µg/mL (≈ 44.2 µM)
MIC (Bifidobacterium longum): 1 to 2 µg/mL (≈ 0.69 to 1.38 µM)
MIC (M. luteus): 2 µg/mL (≈ 1.38 µM)
MIC (S. epidermidis): 2 µg/mL (≈ 1.38 µM)
MIC (E. faecium; ATCC19579, E. faecium (VSE) ATCC 19579, Table 5, read-out: Minimal Inhibitory Concentration (MIC)): 0.5 µg/mL (≈ 0.345 µM)
MIC (E. faecium; ATCC29212, read-out: Minimal Inhibitory Concentration (MIC), E. faecium (VSE) ATCC 29212, Table 5): 4 µg/mL (≈ 2.76 µM)
MIC (E. faecium; E. faecium 19579, Table 2, read-out: MIC): 4 µg/mL (≈ 2.76 µM)
MIC (E. faecium; E. faecium 7131121, Table 2, read-out: MIC): > 64 µg/mL
MIC (E. faecium; VRE, E. faecium (VRE) (clinical isolate), Table 5, first isolate, read-out: Minimal Inhibitory Concentration (MIC)): > 64 µg/mL
MIC (E. faecium; VRE, E. faecium (VRE) (clinical isolate), Table 5, second isolate, read-out: Minimal Inhibitory Concentration (MIC)): > 64 µg/mL
MIC (S. aureus; S. aureus R33): 1 µg/mL (≈ 0.69 µM)
MIC (S. aureus; S. aureus SH1000): 2 µg/mL (≈ 1.38 µM)
MIC (Clostridium difficile; Clostridioides difficile, C. difficile 027C, Table 4, read-out: MIC): 0.5 µg/mL (≈ 0.345 µM)
MIC (Clostridium difficile; Clostridioides difficile, C. difficile 027SM, Table 4, read-out: MIC): 0.5 µg/mL (≈ 0.345 µM)
MIC (Clostridium difficile; Clostridioides difficile, C. difficile 19126, Table 4, read-out: MIC): 1 µg/mL (≈ 0.69 µM)
MIC (Clostridium difficile; Clostridioides difficile, C. difficile 37779, Table 4, read-out: MIC): 1 µg/mL (≈ 0.69 µM)
MIC (Clostridium difficile; Clostridioides difficile, C. difficile B32, Table 4, read-out: MIC): 1 µg/mL (≈ 0.69 µM)
MIC (Clostridium difficile; Clostridioides difficile, C. difficile E4, Table 4, read-out: MIC): 1 µg/mL (≈ 0.69 µM)
MIC (Clostridium difficile; Clostridioides difficile, C. difficile E16, Table 4, read-out: MIC): 1 µg/mL (≈ 0.69 µM)
MIC (Clostridium difficile; Clostridioides difficile, C. difficile E101, Table 4, read-out: MIC): 1 µg/mL (≈ 0.69 µM)
MIC (Clostridium difficile; Clostridioides difficile, C. difficile P24, Table 4, read-out: MIC): 1 µg/mL (≈ 0.69 µM)
MIC (Clostridium difficile; Clostridioides difficile, C. difficile P49, Table 4, read-out: MIC): 0.5 µg/mL (≈ 0.345 µM)
MIC (Clostridium difficile; Clostridioides difficile, C. difficile P59, Table 4, read-out: MIC): 1 µg/mL (≈ 0.69 µM)
MIC (Clostridium difficile; Clostridioides difficile, C. difficile P62, Table 4, read-out: MIC): 0.5 µg/mL (≈ 0.345 µM)
MIC (E. faecalis): 4 µg/mL (≈ 2.76 µM)

Deoxy-actagardine B (L-serine methyl ester) monocarboxamide [Compound XXI]
MIC (Clostridium difficile; C. difficile 027C, Table 4A): 2
MIC (Clostridium difficile; C. difficile 630, Table 4A): 4
MIC (Clostridium difficile; C. difficile 19126, Table 4A): 4
MIC (Clostridium difficile; C. difficile 37779, Table 4A): 4

mersacidin
in vitro activity against M. luteus during the course of the experiment (Micrococcus luteus): remained unaltered
